Laboratory results taken from patent US12415811B2, “1,2,3',5'-tetrahydro-2'h-spiro[indole-3,1'-pyrrolo[3,4-C]pyrrole]-2,3'-dione compounds as therapeutic agents activating TP53” (ADAMED PHARMA, S.A., priority 2018, dated 2025).
Where two headings read alike, the source gives them in different places.

How the values were obtained:
p53-Mdm2 interaction = p53-Mdm2 interaction (Homo sapiens (Human), UniProt Q00987); test: Fluorescence polarization (FP) binding assay, inhibition of p53-Mdm2 interaction; conditions: 75 nM Mdm2 (amino acids 1-111), 10 nM FAM-labelled p53 peptide; IC50 transformed to Ki using Kenakin equation
Sequence of p53-Mdm2 interaction (Q00987 1-111): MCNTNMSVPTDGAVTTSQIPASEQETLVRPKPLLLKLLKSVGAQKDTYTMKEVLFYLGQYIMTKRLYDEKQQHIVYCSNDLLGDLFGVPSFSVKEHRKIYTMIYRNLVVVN
Protocol: The inhibition of p53-Mdm2 interaction was measured using a fluorescence polarization (FP) binding assay. FP measures the rotational movement of molecules in a homogenous suspension. For this assay, N-terminal domain of Mdm2 protein (amino acids 1-111) is combined with a fluorescein-labeled (FAM) peptide derived from p53 trans-activation domain (Sequence: 5-FAM-TSFAEYWNLLSP). Upon excitation of the fluorescent ligand with linearly polarized light the peptide emits perpendicularly polarized light. If the peptide is bound by Mdm2, rotation will slow down and the perpendicular component will proportionally decrease. In opposition disruption of the peptide-Mdm2 complex due to binding of an inhibitor to the p53 binding site of Mdm2 results in releasing of peptide and decreasing of emitted light polarization.
Fluorescence polarization experiments were read on Biotek Cytation 5 reader with the 470 nm excitation and 520 nm emission filters for fluorescein. The fluorescence polarization was measured in black 96-well plates (Corning, CLS3991) in room temperature. Purity of Mdm2 was controlled at >95%. Reaction buffer was optimized by adding 5 mM DTT and 0.1% zwitterionic detergent CHAPS to reduce effect of nonspecific interactions.
The test was performed by combining successive dilution of compounds diluted in dimethyl sulfoxide (DMSO, 5% final concentration) with 75 nM Mdm2 in reaction buffer (PBS, 0.1% CHAPS, 5 mM DTT (dithiothreitol)). After 15 minutes of incubation in room temperature 10 nM FAM-labelled peptide was added. Final reading was performed after 90 minutes of incubation. Dose-dependent binding curves and IC50 values were calculated using GraphPad Prism5 and next transformed to Ki values using Kenakin equation (Table 2).

[1] = test system: SJSA-1 osteosarcoma cell line; test: Cell viability MTT assay; type: cell-based; conditions: Homo sapiens, 72 h incubation, average of 2-5 experiments
Protocol: The effect of the invented p53-Mdm2 inhibitors on cell viability has been assessed using MTT assay. It is a colorimetric assay that measures conversion of tetrazolium ring of the soluble yellow dye (MTT) into insoluble purple formazan. This process is catalyzed solely in mitochondrial dehydrogenases of living cells.
Cells were seeded on 96-well plates and then treated with successive dilutions of tested compounds. After 72 h incubation, MTT was added to the final concentration 0.5 mg/ml. The cells were further incubated for the next 4 h. Then the solution was drained and the remaining formazan crystals were dissolved in 100 μl DMSO. […] All the MTT experiments were independently repeated 2-5 times. Dose-dependent binding curves and IC50 values were calculated using GraphPad Prism 5. The presented IC50 values represent the average value from all the performed experiments (Table 3).

[2] = In vitro intrinsic clearance in murine microsomes; type: in vitro ADME; conditions: mouse, pH 7.4; murine microsomes 0.5 mg/ml, 1 μM compound, 37° C., up to 1 hour; read-out: murine MS Clint
Protocol: (§1) Metabolic stability of the compounds of the invention has been assessed by measurement of the in vitro intrinsic clearance in murine and human microsomes.
(§2) 10 mM stock solutions of markers and test compounds were prepared in DMSO. These were diluted 100-fold in 91:9 MeCN:DMSO to obtain a 100 μM assay stock. 10 mM NADPH was made up in 0.1M phosphate buffer (pH7.4). Microsomes were thawed in a waterbath at 37° C., and diluted to give a final assay concentration of 0.5 mg/ml.
(§3) 100 μM assay stocks were added to give a final concentration of 1 μM to incubation tubes containing buffer and NADPH (final assay concentration is 1 mM). Incubation tubes and microsomes were pre-warmed at 37° C. for 3 minutes. The microsomes were then added to the incubation tubes which were kept at 37° C. and shaken using the orbital shaker for the duration of the assay. Samples were taken at 6 pre-determined time points up to 1 hour and transferred to the prepared quench tubes containing an appropriate solvent with internal standard.
(§4) Quenched samples are mixed thoroughly and protein precipitated at −20° C. for a minimum of 12 hours. Samples were then centrifuged at 4° C. Supernatants were transferred to a fresh 96 well plate, compatible with the auto-sampler. The plate was sealed with a pre-slit silicone mat and analyzed by LC-MS/MS.

[3] = In vitro intrinsic clearance in human microsomes; type: in vitro ADME; conditions: pH 7.4; human microsomes 0.5 mg/ml, 1 μM compound, 37° C., up to 1 hour; read-out: human MS Clint
Protocol: as §1, §2, §3, §4

SJSA-1 xenograft = test: In vivo efficacy in the SJSA-1 xenograft model in mice; conditions: Mus musculus, po, 12.5 mg/kg p.o., q1d, SJSA-1 xenograft in Crl:CD-1-Foxn1nu mice, mean
Protocol: The experiment was conducted on female mice from the Crl:CD-1-Foxn1nu strain. Mice were inoculated subcutaneously in the right flank with cancer cell line SJSA-1 in the amount of 3×10^6 cells suspended in 100 μl HBSS: Matrigel matrix in a 3:1 ratio per mouse. On the 17th day after inoculation mice were divided into groups, so that in each group the mean tumor volume was similar and averaged around 200 mm^3. Experiment groups were selected, each consisting of 8 mice: Control NaCl 0.9% and compounds. Compounds 1-11 were dissolved in 56.60% PEG 400, 9.43% Cremophor RH40, 9.43% ETOH, 18.87% Labrafil M1944CS, 5.67% DMSO. For Compound 107 from WO2015/189799, group of 7 mice was used, and it was dissolved in 15% PEG400, 10% Cremophor EL, 75% H2O.
[…] During the course of experiment mice were weighed before each administration, —twice/thrice a week. Animal welfare was monitored daily. No significant difference in body weight or welfare was observed between experiment groups during and at the end of study.
Change in tumor volume was monitored twice/thrice a week starting from the first day of administration. Tumor volume was calculated based on its length and width measured with an electronic calipers: V[mm^3]=d^2×D/2
The tumor volume in the groups was measured up to 101 days after inoculation (72 days after last administration). Results of the experiment were expressed as mean values of tumor growth inhibition (TGI) ±SEM (Table 4). Tumor growth inhibition was calculated using the following formula TGI [%]=[100−[…]]
where C— mean tumor size in control group, T—mean tumor size in treated group. All calculations and graphs were performed using GraphPad Prism 5 software.

[4] = after 7 doses, read-out: TGI P.O. 12.5 mg/kg (7 doses) [%]
[5] = after 12 doses, read-out: TGI P.O. 12.5 mg/kg (12 doses) [%]

Row | Ki (p53-Mdm2 interaction) | IC50 [1] | microsomal CLint at 1 μM [2] | microsomal CLint at 1 μM [3] | Structure (SMILES) | inhibition in vivo at 12.5 mg/kg (SJSA-1 xenograft; [4]) | inhibition in vivo at 12.5 mg/kg (SJSA-1 xenograft; [5])
1 | 2.4 nM | 0.07 µM | < 3 µL/min/mg | < 3 µL/min/mg | COc1nc(OC)c(-n2cc3c(c2C(C)C)[C@@]2(C(=O)Nc4cc(Cl)ccc42)N(c2cc(Cl)ccc2C)C3=O)c(OC)n1 [Compound 3, (3S)-6-chloro-2′-(5-chloro-2-methylphenyl)-6′-(propan-2-yl)-5′-(trimethoxypyrimidin-5-yl)-1,2,3′,5′-tetrahydro-2′H-spiro[indole-3,1′-pyrrolo[3,4-c]pyrrole]-2,3′-dione] | 94.2% | 99.6%
2 | 1.7 nM | 0.16 µM | < 4 µL/min/mg | < 3 µL/min/mg | COc1ncc(-n2cc3c(c2C(C)C)[C@@]2(C(=O)Nc4cc(Cl)ccc42)N(c2cc(Cl)ccc2F)C3=O)c(OC)n1 [Compound 2, (3S)-6-chloro-2′-(5-chloro-2-fluorophenyl)-5′-(2,4-dimethoxypyrimidin-5-yl)-6′-(propan-2-yl)-1,2,3′,5′-tetrahydro-2′H-spiro[indole-3,1′-pyrrolo[3,4-c]pyrrole]-2,3′-dione] | 94.4% | 98.9%
